These molecules were tested against T1, Acetylcholinesterase (Bos taurus, UniProt P23795) (assay: Dissociation constant for the inhibition of fetal bovine serum acetylcholinesterase was determined..).
T1 sequence (P23795 whole entry): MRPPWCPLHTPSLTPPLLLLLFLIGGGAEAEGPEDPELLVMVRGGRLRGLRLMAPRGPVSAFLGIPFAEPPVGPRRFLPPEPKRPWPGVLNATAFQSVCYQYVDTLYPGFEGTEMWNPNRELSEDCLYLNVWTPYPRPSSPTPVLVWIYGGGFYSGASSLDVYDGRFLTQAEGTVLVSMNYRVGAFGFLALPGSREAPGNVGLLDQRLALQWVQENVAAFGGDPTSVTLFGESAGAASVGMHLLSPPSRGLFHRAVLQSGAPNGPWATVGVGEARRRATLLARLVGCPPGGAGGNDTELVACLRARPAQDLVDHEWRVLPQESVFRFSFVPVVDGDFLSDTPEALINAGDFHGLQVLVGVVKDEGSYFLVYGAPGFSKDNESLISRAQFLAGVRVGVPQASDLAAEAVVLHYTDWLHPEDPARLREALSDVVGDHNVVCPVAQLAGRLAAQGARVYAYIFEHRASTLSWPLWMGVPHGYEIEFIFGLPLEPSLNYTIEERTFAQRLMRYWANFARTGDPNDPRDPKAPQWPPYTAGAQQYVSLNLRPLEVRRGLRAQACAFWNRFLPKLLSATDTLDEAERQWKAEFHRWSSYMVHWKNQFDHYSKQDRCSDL

Point of comparison: C/C=C1\C2C=C(C)C[C@]1(N)c1ccc(O)nc1C2(C)C (mixture of isomers), Ki 16.7 nM. Against it:
- C/C=C1\[C@H]2C=C(C)C[C@]1(N)c1ccc(=O)[nH]c1C2 (stereo in doubt; form 1) [HUPERZINE A] — within 1.5-fold, 23.6 nM
- C/C=C1\[C@H]2C=C(C)C[C@]1(N)c1ccc(=O)[nH]c1C2 (stereo in doubt; form 2) [HUPERZINE A] — 2.8-fold lower, 5.9 nM

The molecules below were run against T2, Acetylcholinesterase (Bos taurus) (UniProt P23795).
T2 sequence (whole entry): T1 sequence (P23795 whole entry)
Description: Kinetic constant for inhibition of fetal bovine serum acetylcholinesterase

Point of comparison: C/C=C1\[C@H]2C=C(C)C[C@]1(N)c1ccc(=O)[nH]c1C2 (stereo in doubt; form 2), k off 0.000334 s⁻¹. Against it:
- C/C=C1\C2C=C(C)C[C@]1(N)c1ccc(O)nc1C2(C)C (mixture of isomers) — 1.5-fold lower, 0.000217 s⁻¹
- C/C=C1\[C@H]2C=C(C)C[C@]1(N)c1ccc(=O)[nH]c1C2 (stereo in doubt; form 1) — within 1.5-fold, 0.000367 s⁻¹
